Patent US11834446B2, “Methods and compositions useful in treating cancer and reducing Wnt mediated effects in a cell” (StemSynergy Therapeutics, Inc., priority 2009, dated 2023)

Test system: Wnt reporter (TCF/LEF1 promoter) in HEK STF293 cells
Experiment: HEK STF293 Wnt reporter (luciferase) assay
Assay type: cell-based
Conditions: Homo sapiens, STF/293, Wnt3a-conditioned media, Steady Glo normalized to Cell Titer
Method: Screening with STF293 and SW480STF. HEK STF293 cells are seeded at approximately 25,000-30,000 cells/well in a 96-well (100 uL volume). On the first day, Wnt3a-conditioned media (1:1) will be added along with diluted compounds (1:100). For example, for 100 ul of STF293 cells, 100 ul of Wnt3a-conditioned media and 2 ul of drug will be added to each well. The final concentrations should therefore be 100 μM, 30 μM, 10 μM, 3 μM, 1 μM, 300 nM, 100 nM, 30 nM, 10 nM, 3 nM, 1 nM, and 0.3 nM. On the second day, the media is removed and 75 ul of Passive Lysis Buffer (Promega) is added to each well. The plate will be shaken at 130 rpm for 15 minutes. For the Steady Glo assay, 45 ul of the lysis is removed and added to a white 96-well plate containing 45 uL/well of Steady Glo solution (Promega). For the Cell Titer assay, 25 ul of the lysis is transferred to a white 96-well plate containing 25 ul/well of Cell Titer solution (Promega). Both Steady Glo and Cell Titer assays will be read with a luminescence plate reader. When determining EC50, the Steady Glo values will be divided by the Cell Titer values to normalize for cell number and the resulting values plotted in a dose-response curve.
Experimental. All compounds were tested using the human cell line HEK STF293. This cell line carries a Wnt reporter (TCF/LEF1 promoter), which drives expression of the firefly luciferase protein. The level of Wnt activity is directly correlated with the level of luciferase activity (determined using a simple assay). Compounds that inhibit Wnt signaling by reducing luciferase activity in these two cell lines are further tested biochemically.
Compounds were prepared as 10 mM stocks for each compound in DMSO. Dilutions were prepared in a 96-well plate in DMSO. The stock dilutions are as follows: 10 mM, 1 mM, […]. Plates were sealed and stored at −20 C.
HEK STF293 cells were seeded at approximately 25,000-30,000 cells/well in a 96-well (100 uL volume). On the first day, Wnt3a-conditioned media (1:1) were added along with diluted compounds (1:100). For example, for 100 ul of STF293 cells, 100 ul of Wnt3a-conditioned media and 2 ul of drug was added to each well. The final concentrations should therefore be 100 uM, 10 uM, 1 uM, 100 nM, 10 nM, and 1 nM. On the second day, the media is removed and 75 ul of Passive Lysis Buffer (Promega) is added to each well. The plate is shaken at 130 rpm for 15 minutes. For the Steady Glo assay, 45 ul of the lysis is removed and added to a white 96-well plate containing 45 uL/well of Steady Glo solution (Promega). For the Cell Titer assay, 25 ul of the lysis is transferred to a white 96-well plate containing 25 ul/well of Cell Titer solution (Promega). Both Steady Glo and Cell Titer assays were read with a luminescence plate reader. When determining EC50, the Steady Glo values were divided by the Cell Titer values to normalize for cell number.

Compound	EC50
Cc1ccc(C)c(NS(=O)(=O)c2ccc(NC(=O)c3n[nH]c4c3CCc3ccccc3-4)cc2)c1	> 100 nM
Cc1nn(Cc2ccccc2)c(C)c1NC(=O)c1cc2n(n1)C(C(F)(F)F)CC(c1ccccc1)N2 (stereo not drawn)	≤ 100 nM
O=C(Nc1nc(-c2ccccn2)cs1)c1ccc(S(=O)(=O)N2CCCc3ccccc32)cc1	≤ 100 nM
NC(=O)c1ccccc1NC(=O)c1ccc(S(=O)(=O)Nc2ccccc2)cc1	> 100 nM
COc1cc2nc(NC(=O)c3ccc(S(=O)(=O)N(C)c4ccccc4)cc3)sc2cc1OC	> 100 nM
COc1ccccc1-c1cc(C(=O)Nc2c(C)nn(Cc3ccc(F)cc3)c2C)no1	> 100 nM
COc1cc2nc(NC(=O)c3ccc(S(=O)(=O)N4CCc5ccccc54)cc3)sc2cc1OC	> 100 nM
O=C(Nc1ccc(F)cc1)c1ccc(S(=O)(=O)N2CCc3ccccc32)cc1	> 100 nM
Cc1sc(NC(=O)c2ccc(S(=O)(=O)N3CCc4ccccc43)cc2)nc1-c1ccccc1	> 100 nM
Cc1nn(Cc2ccccc2)c(C)c1NC(=O)c1cc(-c2ccc(Br)cc2)on1	≤ 100 nM
Cc1nn(Cc2ccc(F)cc2)c(C)c1NC(=O)c1cc(-c2ccc(F)cc2)on1	> 100 nM
Cc1ccc(NS(=O)(=O)c2ccc(NC(=O)c3n[nH]c4c3CCc3ccccc3-4)cc2)cc1	> 100 nM
